Laboratory results: US20140274969A1 (priority 2013, published 2014)
Where two headings read alike, the source gives them in different places.

Key:
acute traumatic SCI = test: ASIA sensory recovery (pinprick, light touch) after acute traumatic SCI; type: in vivo, human
Description: Clin. Exp. Pharmacol. Physiol. 1:299-308). […] Neurological function was assessed at intervals using the American Spinal Cord Injury Association (ASIA) standardized neurological examination and included the motor composites and sensory composites. These examinations were performed by a physical medicine and rehabilitation specialist at Day 1 (time of enrolment), Day 4, Day 5, Day 7, Week 3, Week 6, Week 12, Month 6, and Month 12 (Table 3). Day 1 scores were subtracted from each subsequent score to calculate improvement from baseline for graphing purposes. […] ASIA sensory scores were similarly evaluated. […] Functional recovery data were compared over all data points. […] All statistical tests were two-tailed (a=0.05).

[1] = test system: mixed neuronal and glial spinal cord cultures; settings: 20 nM, 30 minutes before 24-hour excitotoxin exposure; cited from earlier work
[2] = Description: Subjects were evaluated for adverse events daily while in hospital and at each subsequent clinical evaluation. All serious adverse events (Table 4) were reviewed promptly by a safety monitoring board composed of clinicians and clinician researchers not otherwise involved in this study. A summary of all adverse events was reviewed every 6 months.
The model assumed that any change associated with treatment group was constant over these time points. An interaction term between treatment and injury type was included to allow for the possibility that changes associated with treatment group differed among motor-complete and motor-incomplete injured subjects. ASIA sensory scores were similarly evaluated. ASIA motor, pin-prick and light scores were evaluated by the Shapiro-Wilk normality test and were consistent with a normal distribution. Functional recovery data were compared over all data points. Adverse events were categorized by system and mean numbers of events per patient were compared within each system by ANOVA. All statistical tests were two-tailed (a=0.05). […] The Student t-test was then used to estimate the between group difference that this study was powered to detect with power=0.8 and a=0.05.

[3] = High dose (800 mg tapered by 100 mg each 12 h to 400 mg, 7 days)
[4] = Low dose (200 mg IV twice daily, 7 days)

Q: Which results are given for CN(C)c1ccc(O)c2c1C[C@H]1C[C@H]3[C@H](N(C)C)C(O)=C(C(N)=O)C(=O)[C@@]3(O)C(O)=C1C2=O [minocycline, (2E,4S,4aR,5aS,12aR)-2-(amino-hydroxy-methylidene)-4,7-bis(dimethylamino)-10,11,12a-trihydroxy-4-a,5,5a,6-tetrahydro-4H-tetracene-1,3,12-trione]?
A: ASIA pinprick sensory recovery greater than placebo (acute traumatic SCI; all subjects, not statistically significant, P=0.15): nine; ASIA light-touch sensory recovery greater than placebo (acute traumatic SCI; all subjects, not statistically significant, P=0.27): seven; ASIA light-touch score higher than placebo (acute traumatic SCI; cervical motor-incomplete, P=0.20): 20 light-touch points; ASIA pinprick score higher than placebo (acute traumatic SCI; cervical motor-incomplete, P=0.49): 14 pinprick points; difference in sensory scores vs placebo (acute traumatic SCI; thoracic SCI): No difference; IL-1β and NO metabolite production [1]: reduced; microglia proliferation [1]: Inhibition; neuronal cell survival [1]: more than doubled; Autonomic dysreflexia: # of events [2, 3]: 1; Autonomic dysreflexia: # of subjects [2, 3]: 1; Cardiac: # of events [2, 3]: 14; Cardiac: # of subjects [2, 3]: 9; Deep venous thrombosis: # of events [2, 3]: 1; Deep venous thrombosis: # of subjects [2, 3]: 1; Deep venous thrombosis: events/subject [2, 3]: 0.06; Endocrine: # of events [2, 3]: 0; Endocrine: # of subjects [2, 3]: 0; Endocrine: events/subject [2, 3]: 0; Gastrointestinal: # of events [2, 3]: 36; Gastrointestinal: # of subjects [2, 3]: 12; Gastrointestinal: events/subject [2, 3]: 1.88; Genito-urinary: # of events [2, 3]: 7; Genito-urinary: # of subjects [2, 3]: 5; Genito-urinary: events/subject [2, 3]: 0.44; Haematological: # of events [2, 3]: 9; Haematological: # of subjects [2, 3]: 6; Haematological: events/subject [2, 3]: 0.63; Infectious: # of events [2, 3]: 28; Infectious: # of subjects [2, 3]: 11; Infectious: events/subject [2, 3]: 1.38; Integumentary: # of events [2, 3]: 21; Integumentary: # of subjects [2, 3]: 11; Integumentary: events/subject [2, 3]: 1.13; Musculoskeletal: # of events [2, 3]: 14; Musculoskeletal: # of subjects [2, 3]: 13; Musculoskeletal: events/subject [2, 3]: 0.75; Neurological: # of events [2, 3]: 16; Neurological: # of subjects [2, 3]: 10; Neurological: events/subject [2, 3]: 0.56; Other: # of events [2, 3]: 19; Other: # of subjects [2, 3]: 11; Pain: # of events [2, 3]: 31; Pain: # of subjects [2, 3]: 14; Psychiatric: # of events [2, 3]: 18; Psychiatric: # of subjects [2, 3]: 8; Psychiatric: events/subject [2, 3]: 1.13; Respiratory: # of events [2, 3]: 13; Respiratory: # of subjects [2, 3]: 9; Respiratory: events/subject [2, 3]: 0.81; Serious adverse events: # of events [2, 3]: 1; Serious adverse events: # of subjects [2, 3]: 1; Serious adverse events: events/subject [2, 3]: 0.06; Autonomic dysreflexia: # of events [2, 4]: 0; Autonomic dysreflexia: # of subjects [2, 4]: 0; Cardiac: # of events [2, 4]: 5; Cardiac: # of subjects [2, 4]: 4; Deep venous thrombosis: # of events [2, 4]: 0; Deep venous thrombosis: # of subjects [2, 4]: 0; Deep venous thrombosis: events/subject [2, 4]: 0; Endocrine: # of events [2, 4]: 1; Endocrine: # of subjects [2, 4]: 1; Endocrine: events/subject [2, 4]: 0.2; Gastrointestinal: # of events [2, 4]: 12; Gastrointestinal: # of subjects [2, 4]: 5; Gastrointestinal: events/subject [2, 4]: 2.2; Genito-urinary: # of events [2, 4]: 0; Genito-urinary: # of subjects [2, 4]: 0; Genito-urinary: events/subject [2, 4]: 0; Haematological: # of events [2, 4]: 2; Haematological: # of subjects [2, 4]: 2; Haematological: events/subject [2, 4]: 0.4; Infectious: # of events [2, 4]: 12; Infectious: # of subjects [2, 4]: 4; Infectious: events/subject [2, 4]: 1.8; Integumentary: # of events [2, 4]: 5; Integumentary: # of subjects [2, 4]: 4; Integumentary: events/subject [2, 4]: 1.0; Musculoskeletal: # of events [2, 4]: 4; Musculoskeletal: # of subjects [2, 4]: 4; Musculoskeletal: events/subject [2, 4]: 0.6; Neurological: # of events [2, 4]: 11; Neurological: # of subjects [2, 4]: 5; Neurological: events/subject [2, 4]: 1.6; Other: # of events [2, 4]: 13; Other: # of subjects [2, 4]: 5; Pain: # of events [2, 4]: 10; Pain: # of subjects [2, 4]: 5; Psychiatric: # of events [2, 4]: 8; Psychiatric: # of subjects [2, 4]: 4; Psychiatric: events/subject [2, 4]: 1.2; Respiratory: # of events [2, 4]: 5; Respiratory: # of subjects [2, 4]: 4; Respiratory: events/subject [2, 4]: 1.0; Serious adverse events: # of events [2, 4]: 1; Serious adverse events: # of subjects [2, 4]: 1; Serious adverse events: events/subject [2, 4]: 0.2; adverse events among placebo, low-dose and high-dose groups ([2]; low-dose (200 mg) or high-dose (400 mg) vs placebo): did not vary significantly
